Measured values taken from patent US20220041681A1 (MEDIMMUNE LIMITED, priority 2016, published 2022).

Test system: diet induced obesity (DIO) mouse model
Test: Diet induced obesity (DIO) mouse model, study B
Assay type: in vivo
Conditions: for FGF 21 / HOMA / Hepatic TG / Plasma Cholesterol / Plasma NEFA / Plasma TG: day 14; for Glucose / Insulin: day 14, 4-hour fasting
Experimental: The body weight of the animals was monitored daily throughout the dosing period. At day 14, blood samples for the measurement of plasma glucose and insulin from conscious mice were obtained after a 4-hour fasting period. Mice were then anaesthetized using isoflourane and terminal blood was collected from the capillary bed behind the eye. The following parameters were measured: blood chemistry measurements of triglycerides, total cholesterol, non-esterified fatty acids (NEFA), beta-hydroxybutyrate and fibroblast growth factor 21 (FGF21) (Table 16 and Table 17 below).

CCCCCCCCCCCCCCCC(=O)N[C@@H](CCC(=O)NCCCC[C@H](NC(=O)[C@H](CC(=O)O)NC(=O)[C@H](CO)NC(=O)C(NC(=O)[C@H](Cc1ccccc1)NC(=O)C(NC(=O)CNC(=O)[C@H](CCC(N)=O)NC(=O)[C@H](CO)NC(=O)[C@@H](N)Cc1cnc[nH]1)[C@@H](C)O)[C@@H](C)O)C(=O)N[C@@H](CO)C(=O)N[C@@H](CCC(=O)O)C(=O)N[C@@H](Cc1ccc(O)cc1)C(=O)N[C@@H](CC(C)C)C(=O)N[C@@H](CC(=O)O)C(=O)N[C@@H](CO)C(=O)N[C@@H](CCC(=O)O)C(=O)N[C@@H](CCCNC(=N)N)C(=O)N[C@@H](C)C(=O)N[C@@H](CCCNC(=N)N)C(=O)N[C@@H](CC(=O)O)C(=O)N[C@@H](Cc1ccccc1)C(=O)N[C@H](C(=O)N[C@@H](C)C(=O)N[C@@H](Cc1c[nH]c2ccccc12)C(=O)N[C@@H](CC(C)C)C(=O)N[C@@H](CCC(=O)O)C(=O)N[C@@H](C)C(=O)NCC(=O)NCC(=O)O)C(C)C)C(=O)O (stereo partly shown) [Peptide G933]
BW day 14 (% change of vehicle mean) (5 nmol/kg sc twice daily for 14 days): −11% | FGF 21 (5 nmol/kg sc twice daily): 2682 pg/mL | HOMA (5 nmol/kg sc twice daily): 3.31 | Hepatic TG (5 nmol/kg sc twice daily): 19.3 g TG/100 g tissue | Plasma Cholesterol (5 nmol/kg sc twice daily): 2.88 mM | Plasma NEFA (5 nmol/kg sc twice daily): 0.28 mM | Plasma TG (5 nmol/kg sc twice daily): 0.89 mM | Glucose (5 nmol/kg sc twice daily): 6.2 mM | Insulin (5 nmol/kg sc twice daily): 0.53 nM | BW day 14 (% change of vehicle mean) (10 nmol/kg sc twice daily for 14 days): −19% | FGF 21 (10 nmol/kg sc twice daily): 4459 pg/mL | HOMA (10 nmol/kg sc twice daily): 1.98 | Hepatic TG (10 nmol/kg sc twice daily): 14.7 g TG/100 g tissue | Plasma Cholesterol (10 nmol/kg sc twice daily): 2.32 mM | Plasma NEFA (10 nmol/kg sc twice daily): 0.27 mM | Plasma TG (10 nmol/kg sc twice daily): 0.16 mM | Glucose (10 nmol/kg sc twice daily): 7.2 mM | Insulin (10 nmol/kg sc twice daily): 0.27 nM | body weight over the 14 day dosing period (study B, in words): dose dependent and continuous weight loss
